Key:
Assay type in all cases: binding
[1] = biological target: TEAD4 TAZ (amino acids 13-57) (Homo sapiens, UniProt Q15561); test: TEAD4-TAZ HTRF (TR-FRET) protein-protein interaction assay; conditions: for TEAD4 TAZ HTRF combined: Max % Inhibition: TEAD4, TAZ peptide; for EC50: TEAD4-TAZ HTRF, TR-FRET 665 nm/615 nm, read-out: TEAD4 TAZ HTRF combined: EC50
Outline: (§1)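 Compounds were given 30 min to bind Eu anti-His-labelled TEAD (His-tagged, aa 217-447) before streptavidin-XL665-coupled biotin-YAP 50-100 or biotin-TAZ 13-57 peptide went in for a further 60 min at room temperature. Loss of 665/615 nm TR-FRET ratio gave IC50/EC50 via four-parameter curve fit.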

TEAD4 YAP50-100 = TEAD4 YAP50-100 (Homo sapiens, UniProt Q15561); test: TEAD4-YAP HTRF (TR-FRET) protein-protein interaction assay; conditions: TEAD4, YAP peptide 50-100, HTRF; for EC50: read-out: TEAD4 YAP50-100 HTRF combined: EC50
TEAD4 YAP50-100, sequence (Q15561 217-434 limits assumed): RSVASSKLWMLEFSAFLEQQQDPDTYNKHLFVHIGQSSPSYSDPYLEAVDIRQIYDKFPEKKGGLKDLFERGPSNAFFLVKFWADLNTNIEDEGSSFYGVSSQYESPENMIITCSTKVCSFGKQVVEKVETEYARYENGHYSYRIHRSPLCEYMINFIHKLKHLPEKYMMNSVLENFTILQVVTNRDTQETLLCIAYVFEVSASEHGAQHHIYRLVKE
Outline: as §1

TEAD3 YAP50-100 = TEAD3 YAP50-100 (Homo sapiens, UniProt Q99594); test: TEAD3-YAP HTRF (TR-FRET) protein-protein interaction assay; conditions: TEAD3, YAP peptide 50-100, HTRF; for EC50: read-out: TEAD3 YAP50-100 HTRF combined: EC50
TEAD3 YAP50-100, sequence (Q99594 173-435 limits assumed): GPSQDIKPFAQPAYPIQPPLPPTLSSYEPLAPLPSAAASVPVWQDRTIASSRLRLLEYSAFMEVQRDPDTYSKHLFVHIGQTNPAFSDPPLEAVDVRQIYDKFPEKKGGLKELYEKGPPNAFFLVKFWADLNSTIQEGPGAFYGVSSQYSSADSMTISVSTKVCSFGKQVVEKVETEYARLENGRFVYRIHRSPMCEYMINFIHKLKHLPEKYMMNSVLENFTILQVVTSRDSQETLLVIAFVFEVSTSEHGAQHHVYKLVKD
Outline: as §1

TEAD1 YAP50-100 = TEAD1 YAP50-100 (Homo sapiens, UniProt P28347); test: TEAD1-YAP HTRF (TR-FRET) protein-protein interaction assay; conditions: TEAD1, YAP peptide 50-100, HTRF; for EC50: read-out: TEAD1 YAP50-100 HTRF combined: EC50
TEAD1 YAP50-100, sequence (P28347 167-426 limits assumed): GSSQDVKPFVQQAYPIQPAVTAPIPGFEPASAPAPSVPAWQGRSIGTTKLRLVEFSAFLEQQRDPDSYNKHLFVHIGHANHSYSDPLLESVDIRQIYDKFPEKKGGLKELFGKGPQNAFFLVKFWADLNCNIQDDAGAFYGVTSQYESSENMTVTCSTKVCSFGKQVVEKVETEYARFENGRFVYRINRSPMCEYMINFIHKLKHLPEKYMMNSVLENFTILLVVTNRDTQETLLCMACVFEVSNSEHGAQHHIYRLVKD
Outline: as §1

[2] = biological target: TEAD3 TAZ (amino acids 13-57) (Homo sapiens, UniProt Q99594); test: TEAD3-TAZ HTRF (TR-FRET) protein-protein interaction assay; conditions: for TEAD3 TAZ HTRF combined: Max % Inhibition: TEAD3, TAZ peptide; for EC50: TEAD3-TAZ HTRF, TR-FRET 665 nm/615 nm, read-out: TEAD3 TAZ HTRF combined: EC50
TEAD3 TAZ (amino acids 13-57), sequence (Q99594 173-435 limits assumed): as the sequence (Q99594 173-435 limits assumed) above
Outline: as §1

[3] = biological target: TEAD1 TAZ (amino acids 13-57) (Homo sapiens, UniProt P28347); test: TEAD1-TAZ HTRF (TR-FRET) protein-protein interaction assay; conditions: for TEAD1 TAZ HTRF combined: Max % Inhibition: TEAD1, TAZ peptide; for EC50: TEAD1-TAZ HTRF, TR-FRET 665 nm/615 nm, read-out: TEAD1 TAZ HTRF combined: EC50
TEAD1 TAZ (amino acids 13-57), sequence (P28347 167-426 limits assumed): as the sequence (P28347 167-426 limits assumed) above
Outline: as §1

[4] = biological target: TEAD2 TAZ (amino acids 13-57) (Homo sapiens, UniProt Q15562); test: TEAD2-TAZ HTRF (TR-FRET) protein-protein interaction assay; conditions: for TEAD2 TAZ HTRF combined: Max % Inhibition: TEAD2, TAZ peptide; for EC50: TEAD2-TAZ HTRF, TR-FRET 665 nm/615 nm, read-out: TEAD2 TAZ HTRF combined: EC50
TEAD2 TAZ (amino acids 13-57), sequence (Q15562 217-447): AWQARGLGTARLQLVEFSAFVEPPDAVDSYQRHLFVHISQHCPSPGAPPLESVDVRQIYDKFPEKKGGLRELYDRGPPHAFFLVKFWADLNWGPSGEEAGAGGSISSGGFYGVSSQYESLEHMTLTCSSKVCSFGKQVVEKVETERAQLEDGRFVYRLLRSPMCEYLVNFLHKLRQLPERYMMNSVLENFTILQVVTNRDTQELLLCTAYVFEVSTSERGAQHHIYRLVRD
Outline: as §1

TEAD2 YAP50-100 = TEAD2 YAP50-100 (Homo sapiens, UniProt Q15562); test: TEAD2-YAP HTRF (TR-FRET) protein-protein interaction assay; conditions: TEAD2, YAP peptide 50-100, HTRF; for EC50: read-out: TEAD2 YAP50-100 HTRF combined: EC50
TEAD2 YAP50-100, sequence (Q15562 217-447): as above
Outline: as §1

TEAD4 TAZ (amino acids 13-57), sequence (Q15561 217-434 limits assumed): as the sequence (Q15561 217-434 limits assumed) above

Row | Structure (SMILES) | TEAD4 TAZ HTRF combined: Max % Inhibition [1] | EC50 [1] | TEAD4 YAP50-100 HTRF combined: Max % Inhibition (TEAD4 YAP50-100) | EC50 (TEAD4 YAP50-100) | TEAD3 YAP50-100 HTRF combined: Max % Inhibition (TEAD3 YAP50-100) | EC50 (TEAD3 YAP50-100) | TEAD1 YAP50-100 HTRF combined: Max % Inhibition (TEAD1 YAP50-100) | EC50 (TEAD1 YAP50-100) | TEAD3 TAZ HTRF combined: Max % Inhibition [2] | EC50 [2] | TEAD1 TAZ HTRF combined: Max % Inhibition [3] | EC50 [3] | TEAD2 TAZ HTRF combined: Max % Inhibition [4] | EC50 [4] | TEAD2 YAP50-100 HTRF combined: Max % Inhibition (TEAD2 YAP50-100) | EC50 (TEAD2 YAP50-100)
1 | Cc1cnc(-c2nn3c(=O)cc(-c4ccc(C5CCCCC5)cc4)[nH]c3c2C(=O)N2CC(CF)C2)cn1 [Compound 26, 5-(4-Cyclohexylphenyl)-3-(3-(fluoromethyl)azetidine-1-carbonyl)-2-(5-methylpyrazin-2-yl) pyrazolo [1,5-a]pyrimidin-7(4H)-one] | 45.5% | 290 nM | 44.5% | 340 nM | 66.0% | 140 nM | 71.0% | 60 nM | 60.0% | 150 nM | 70.0% | 100 nM | 72.5% | 30 nM | 70.0% | 30 nM
2 | Cc1c(-c2nn3c(=O)cc(-c4ccc(C5CCCCC5)cc4)[nH]c3c2C(=O)N2CC(CF)C2)ncn1C [Compound 30, 5-(4-Cyclohexylphenyl)-2-(1,5-dimethyl-1H-imidazol-4-yl)-3-(3-(fluoromethyl)azetidine-1-carbonyl)pyrazolo[1,5-a]pyrimidin-7(4H)-one] | 31.5% | 120 nM | 45.0% | 180 nM | 65.0% | 90 nM | 71.0% | 70 nM | 51.5% | 80 nM | 64.5% | 60 nM | 61.5% | 10 nM | 61.5% | 10 nM
3 | CCn1cnc(-c2nn3c(=O)cc(-c4ccc(C5CCCCC5)cc4)[nH]c3c2C(=O)N2CC(CF)C2)c1 [Compound 31, 5-(4-Cyclohexylphenyl)-2-(1-ethyl-1H-imidazol-4-yl)-3-(3-(fluoromethyl)azetidine-1-carbonyl)pyrazolo[1,5-a]pyrimidin-7(4H)-one] | 32.0% | 620 nM | 36.0% | 780 nM | 59.0% | 170 nM | 65.0% | 80 nM | 49.5% | 210 nM | 60.5% | 120 nM | 60.5% | 20 nM | 62.0% | 20 nM
4 | Cn1cnc(-c2nn3c(=O)cc(-c4ccc(C5CCCCC5)cc4)[nH]c3c2C(=O)N2CC(CF)C2)c1 [Compound 32, 5-(4-Cyclohexylphenyl)-3-(3-(fluoromethyl)azetidine-1-carbonyl)-2-(1-methyl-1H-imidazol-4-yl)pyrazolo[1,5-a]pyrimidin-7(4H)-one] | 31.0% | 290 nM | 38.5% | 380 nM | 61.0% | 60 nM | 65.0% | 50 nM | 49.5% | 60 nM | 59.5% | 50 nM | 59.0% | 10 nM | 61.5% | 10 nM

Now from value to compound:

Row | TEAD4 TAZ HTRF combined: Max % Inhibition [1] | EC50 [1] | TEAD4 YAP50-100 HTRF combined: Max % Inhibition (TEAD4 YAP50-100) | EC50 (TEAD4 YAP50-100) | TEAD3 YAP50-100 HTRF combined: Max % Inhibition (TEAD3 YAP50-100) | EC50 (TEAD3 YAP50-100) | TEAD1 YAP50-100 HTRF combined: Max % Inhibition (TEAD1 YAP50-100) | EC50 (TEAD1 YAP50-100) | TEAD3 TAZ HTRF combined: Max % Inhibition [2] | EC50 [2] | TEAD1 TAZ HTRF combined: Max % Inhibition [3] | EC50 [3] | TEAD2 TAZ HTRF combined: Max % Inhibition [4] | EC50 [4] | TEAD2 YAP50-100 HTRF combined: Max % Inhibition (TEAD2 YAP50-100) | EC50 (TEAD2 YAP50-100) | Structure (SMILES)
5 | 53.1% | 30 nM | 54.1% | 30 nM | 74.6% | 100 nM | 75.0% | 30 nM | 64.9% | 100 nM | 74.5% | 50 nM | 67.9% | 10 nM | 68.6% | 10 nM | Cc1nccnc1-c1nn2c(=O)cc(-c3ccc(C4CCCCC4)cc3)[nH]c2c1C(=O)N1CC(CF)C1 [Compound 27, 5-(4-Cyclohexylphenyl)-3-(3-(fluoromethyl)azetidine-1-carbonyl)-2-(3-methylpyrazin-2-yl)pyrazolo[1,5-a]pyrimidin-7(4H)-one]
6 | 41.0% | 120 nM | 43.5% | 130 nM | 68.0% | 100 nM | 76.0% | 40 nM | 63.0% | 100 nM | 74.0% | 60 nM | 66.5% | 10 nM | 59.5% | 20 nM | Cc1cncc(-c2nn3c(=O)cc(-c4ccc(C5CCCCC5)cc4)[nH]c3c2C(=O)N2CC(CF)C2)n1 [Compound 28, 5-(4-Cyclohexylphenyl)-3-(3-(fluoromethyl)azetidine-1-carbonyl)-2-(6-methylpyrazin-2-yl)pyrazolo[1,5-a]pyrimidin-7(4H)-one]
7 | 50.5% | 20 nM | 54.0% | 30 nM | 72.5% | 180 nM | 78.0% | 60 nM | 57.5% | 170 nM | 71.5% | 90 nM | 70.0% | 20 nM | 70.0% | 20 nM | Cc1ccnc(-c2nn3c(=O)cc(-c4ccc(C5CCCCC5)cc4)[nH]c3c2C(=O)N2CC(CF)C2)c1C [Compound 29, 5-(4-Cyclohexylphenyl)-2-(3,4-dimethylpyridin-2-yl)-3-(3-(fluoromethyl)azetidine-1-carbonyl)pyrazolo[1,5-a]pyrimidin-7(4H)-one]
